Data as given in paper PMC4747407 (Oncotarget, 2015).

How the values were obtained:
TNKS1/2 = TNKS1/2 inhibition, summary over the enzyme assays; format: biochemical, human; settings: range over the assays used
Method: Samples were analyzed via phosphorimaging.

PARP1 = target: T1, PARP1 (Gallus gallus, UniProt P26446); experiment: PARP trapping: western blot of chromatin-bound fraction of MMS-damaged DT40 cells; format: cell-based, avian; settings: 0.05% MMS, inhibitor 0.1–10 μmol/L, 30 min
T1 construct: endogenous in cells; host or cells: DT40 cells
T1 sequence (P26446 whole entry): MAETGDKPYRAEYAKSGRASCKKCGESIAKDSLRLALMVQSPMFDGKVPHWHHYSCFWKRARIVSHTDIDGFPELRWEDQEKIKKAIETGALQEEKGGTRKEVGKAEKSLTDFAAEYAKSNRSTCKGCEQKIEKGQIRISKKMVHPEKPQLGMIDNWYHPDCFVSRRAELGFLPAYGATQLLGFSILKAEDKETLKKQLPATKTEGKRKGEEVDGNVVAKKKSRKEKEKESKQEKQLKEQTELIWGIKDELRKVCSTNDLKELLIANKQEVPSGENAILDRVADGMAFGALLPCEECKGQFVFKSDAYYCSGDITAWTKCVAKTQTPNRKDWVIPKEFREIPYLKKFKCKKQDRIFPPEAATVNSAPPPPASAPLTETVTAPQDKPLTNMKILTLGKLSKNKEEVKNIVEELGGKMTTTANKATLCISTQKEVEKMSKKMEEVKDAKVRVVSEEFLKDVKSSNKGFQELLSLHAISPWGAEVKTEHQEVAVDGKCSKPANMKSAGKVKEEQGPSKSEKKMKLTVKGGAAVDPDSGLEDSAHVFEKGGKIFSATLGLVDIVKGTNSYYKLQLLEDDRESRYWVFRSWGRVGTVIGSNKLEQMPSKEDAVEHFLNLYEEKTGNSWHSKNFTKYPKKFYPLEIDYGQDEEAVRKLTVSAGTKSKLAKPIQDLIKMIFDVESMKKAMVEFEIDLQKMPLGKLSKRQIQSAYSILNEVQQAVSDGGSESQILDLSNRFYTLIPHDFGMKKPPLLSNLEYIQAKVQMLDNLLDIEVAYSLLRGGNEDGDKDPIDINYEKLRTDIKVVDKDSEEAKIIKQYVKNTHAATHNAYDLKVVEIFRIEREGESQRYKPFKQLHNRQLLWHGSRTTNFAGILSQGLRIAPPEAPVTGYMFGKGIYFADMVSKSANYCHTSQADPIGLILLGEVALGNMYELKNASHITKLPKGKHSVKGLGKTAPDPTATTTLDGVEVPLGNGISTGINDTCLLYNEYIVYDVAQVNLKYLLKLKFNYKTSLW
Method: Following binding of appropriate secondary antibodies labeled with IRDye® (LI-COR), image analysis and quantitation of blots was performed with Image Studio software for the LI-COR Odyssey system (version 2.1.10).

[1] = tested on: PARP activity in NCI-H460 tumor tissue; experiment: Pharmacodynamic PARP inhibition (PAR ELISA) in NCI-H460 tumors; format: in vivo, mouse
Method: Control group (10 mice) were treated with vehicle (0.5% methyl cellulose in water). Mice were euthanized and tumors were harvested at 1, 6, 12, 24 and 36 hours post treatment (5 mice per treatment per time point). Individual tumors were removed and flash frozen in liquid nitrogen for PAR analysis. PARP inhibition was also evaluated in tumors from NCI-H460 human lung cancer subcutaneous xenografts. Control group animals (24 mice) were treated with vehicle (0.5% methyl cellulose). […] Mice were euthanized and tumors were harvested at 0.25, 1, 6, 12, 24 and 36 hours post-treatment. PAR levels were determined by ELISA using the procedure provided by Trevigen and comparing to a PAR standard curve. Protein concentration of tumor lysates was determined using the BCA assay (Thermo Scientific). Results were converted from pg PAR/assay well to ng PAR/mg protein. Data was pooled from multiple experiments. The percent of control for each time point was calculated by using an average of all control replicates from that experiment.

[2] = tested on: Wnt-mediated hair re-growth; experiment: Re-growth of hair after depilation in C57BL/6 mice; format: in vivo, mouse; settings: 30, 100 or 300 mg/kg oral once daily for 12 days
Text: Re-growth of hair was monitored and recorded by photography.

[3] = Gastrointestinal toxicity in preclinical studies; format: in vivo
wild type DT40 cells = experiment: cells; settings: DT40, 48 h, read-out: IC50, cell proliferation, wild type DT40 cells
Method: Proliferation assays were performed in a panel of 32 isogenic DT40 cell lines, in which each line was deficient in a distinct DNA repair gene [31]. Cells were seeded and incubated with test compound at various concentrations for 2–3 days (~ 8 cell cycles). […] Each experiment was conducted in duplicate and a minimum of 3 separate experiments were performed. […] For proliferation assays cells were plated at low density in 96 well plates. […] Cell growth was assessed using the CellTiter-Glo® cell viability assay (Promega, Cat# G7573). Each experiment was conducted in duplicate and a minimum of 3 separate experiments were performed.

P-glycoprotein = tested on: P-glycoprotein; design: method as in PMID 22246237; settings: cited from earlier work
[4] = small phase 1 study; cited from earlier work

Compound: O=c1[nH]nc2c3c(cccc13)N=C(CN1Cc3ccccc3C1)N2 [E7449, 8-(isoindolin-2-ylmethyl)-2,9-dihydro-3H-pyridazino[3,4,5-de]quinazolin-3-one]
- IC50 (TNKS1/2): 50 to 120 nM
- PARP1 trapping onto chromatin (PARP1): binding of PARP1 to chromatin in a dose responsive manner
- PARP inhibition in tumor at early time points ([1]; single dose 1 mg/kg (lowest), 0.25 and 1 hour): significant PARP inhibition
- duration of complete PARP inhibition ([1]; single dose 100 mg/kg): up to 12 hours
- time of rebound in PARP activity ([1]; single dose 100 mg/kg): 24 h
- time of at least partial recovery of PARP activity to basal levels ([1]; single dose 1 and 3 mg/kg): ≤ 6 h
- hair re-growth [2]: significantly delayed
- gastrointestinal toxicity [3]: no gastrointestinal toxicity was observed
- IC50 (wild type DT40 cells): 3200 nM
- P-glycoprotein substrate (P-glycoprotein): not a substrate for P-glycoprotein
- dose-limiting toxicity [4]: fatigue
- tolerability in cancer patients [4]: generally well tolerated
